Data from US8436004B2, “Bicycloaniline derivative” (MSD K.K., priority 2007, dated 2013).
Structures can show the parent of a compound that is named as a salt.

Assays:
Wee1 kinase = biological target: T1, Wee1 kinase (Homo sapiens, UniProt P30291); assay: Wee1 kinase-inhibitory effect (33P-ATP, Poly(Lys,Tyr) substrate, filter assay); type: biochemical; settings: 10 μM ATP, 30° C., 30 minutes
T1 construct: made in house; host or cells: Sf9 insect cells (recombinant baculovirus)
From the text: Pharmacological Test 1 (Wee1 Kinase-Inhibitory Effect)
(1) Purification of Wee1 Kinase:
A cDNA of Wee1 kinase with […] (GST) fused at the amino terminal thereof was inserted into a baculovirus expression vector to construct a recombinant baculovirus, with which cells of an insect cell line Sf9 were infected for high expression therein. The infected cells were recovered and solubilized, and then the GST-tagged Wee1 kinase protein was adsorbed by a glutathion column, and eluted from the column with glutathion, and the active fraction was desalted in a desalting column to give a purified enzyme.
(2) Determination of Wee1 Kinase Activity:
In determination of the Wee1 kinase activity, a synthetic peptide, Poly(Lys,Tyr) Hydrobromide (Lys:Tyr (4:1)) bought from Sigma was used as the substrate.
The amount of the reaction liquid was 21.1 μL; and the composition of the reaction buffer was 50 mM Tris-HCl buffer (pH 7.4)/10 mM magnesium chloride/1 mM dithiothreitol. The purified Wee1 kinase, 2.5 μg of the substrate peptide, 10 μM of non-labeled adenosine triphosphate (ATP) and 1 μCi of [γ-^33P]-labeled ATP (2500 Ci/mmol or more) were added to it, and reacted at 30° C. for 30 minutes. Next, 10 μL of 350 mM phosphate buffer was added to the reaction system to stop the reaction. The substrate peptide was adsorbed by a P81 paper filter 96-well plate, then washed a few times with 130 mM phosphate buffer, and its radioactivity was counted with a liquid scintillation counter. The [γ-^33P]-labeled ATP was bought from Amersham Bioscience.
To add the test compound to the reaction system, the compound was diluted with dimethylsulfoxide (DMSO) to prepare a series of dilutions. 1.1 μL of each dilution was added to the reaction system. As a control, 1.1 μL of DMSO was added to the reaction system.

[1] = system: Cdc2 (Cdk1) tyrosine 15-phosphorylation in WiDr cells; assay: Cdc2 (Cdk1) tyrosine 15-phosphorylation-inhibitory effect in gemcitabine-treated WiDr cells (ELISA); type: cell-based; settings: Homo sapiens, gemcitabine 100 nM 24 hours, then test compound + nocodazole 8 hours, read-out: Cdc2-Y15 Phosphorylation-Inhibitory Effect (WiDr, + gemcitabine) (EC50)
From the text: Pharmacological Test 2 (Method of Determining Drug Potency with Cells (Cdc2 (Cdk1) Tyrosine 15-Phosphorylation-Inhibitory Effect))
Fetal bovine serum (FBS) was obtained from Morgate; media RPMI1640 and DMEM were from Invitrogen; camptothecin was from Sigma; gemcitabine was from Nippon Eli Lilly; nocodazole and protease inhibitor cocktail were from Sigma; rabbit anti-Cdc2 antibody and mouse anti-Cdc2 antibody were from Santa Cruz Biotechnology; rabbit anti-tyrosine 15-phosphorylated Cdc2 antibody and horseradish peroxidase-labeled anti-mouse IgG antibody were from Cell Signaling Technology; sure blue reserve TMB peroxidase substrate was from Kirkegaard and Perry Laboratories.
Human non-small cell lung cancer cells (NCI-H1299) and human colon cancer cells (WiDr) were obtained from American Type Culture Collection (ATCC).
In the method of using WiDr cells, the cells were suspended in a medium of 10% FBS-added DMEM, and the cell suspension was applied to a 96-well Nunclondelta-processed plastic plate in an amount of 2000 cells/100 μL/well, in which the cells were incubated overnight in 5% CO2-95% air at 37° C. […] Cdc2 was determined through ELISA as follows: A rabbit anti-Cdc2 antibody solution, which had been diluted 200-fold with 50 mM carbonate-bicarbonate buffer (pH 9.6), was applied to a 96-well maxisorp plastic plate in an amount of 50 μL/well, and statically kept overnight at 4° C. so as to fix the antibody on the plate. […] Then, 1 M hydrochloric acid was added to it in an amount of 100 μL/well to stop the reaction, and this was analyzed through colorimetry. Tyrosine 15-phosphorylated Cdc2 was determined through ELISA as follows: A rabbit anti-tyrosine 15-phosphorylated Cdc2 antibody solution, which had been diluted 100-fold with 50 mM carbonate-bicarbonate buffer (pH 9.6), was applied to a 96-well maxisorp plastic plate in an amount of 50 μL/well, and statically kept overnight at 4° C. so as to fix the antibody on the plate. […]

T1 sequence (P30291 whole entry): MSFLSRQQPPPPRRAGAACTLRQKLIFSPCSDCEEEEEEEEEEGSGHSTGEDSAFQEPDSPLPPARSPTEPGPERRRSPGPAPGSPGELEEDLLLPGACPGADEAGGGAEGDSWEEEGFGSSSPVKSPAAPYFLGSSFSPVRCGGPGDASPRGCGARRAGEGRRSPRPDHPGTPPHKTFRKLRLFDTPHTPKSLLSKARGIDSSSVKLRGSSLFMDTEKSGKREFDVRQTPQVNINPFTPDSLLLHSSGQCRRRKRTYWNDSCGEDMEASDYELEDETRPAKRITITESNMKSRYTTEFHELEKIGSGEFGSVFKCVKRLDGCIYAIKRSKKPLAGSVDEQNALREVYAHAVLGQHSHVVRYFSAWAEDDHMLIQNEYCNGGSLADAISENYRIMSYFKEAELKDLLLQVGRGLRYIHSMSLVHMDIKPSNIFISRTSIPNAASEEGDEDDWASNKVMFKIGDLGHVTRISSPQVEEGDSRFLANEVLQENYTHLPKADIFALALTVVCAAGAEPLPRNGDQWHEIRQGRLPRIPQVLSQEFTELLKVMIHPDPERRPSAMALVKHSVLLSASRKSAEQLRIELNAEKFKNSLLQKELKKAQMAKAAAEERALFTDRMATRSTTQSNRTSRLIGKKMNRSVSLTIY

| IC50 (Wee1 kinase) | EC50 [1] | SMILES |
| --- | --- | --- |
| 5 nM | 21 nM | CN1Cc2cc(Nc3ncc4c(=N)n(-c5c(Cl)cccc5Cl)c(=O)[nH]c4n3)ccc2C2(CC2)C1 [Example 1, 3-(2,6-dichlorophenyl)-4-imino-7-[(2′-methyl-2′,3′-dihydro-1′H-spiro[cyclopropane-1,4′-isoquinolin]-7′-yl)amino]-3,4-dihydropyrimido[4,5-d]pyrimidin-2(1H)-one dihydrochloride] |
| 4.3 nM | 24 nM | CN1Cc2cc(Nc3ncc4c(=N)n(-c5c(Cl)cccc5Cl)c(=O)[nH]c4n3)ccc2C1(C)C [Example 7, 3-(2,6-dichlorophenyl)-4-imino-7-[(1,1,2-trimethyl-2,3-dihydro-1H-isoindol-5-yl)amino]-3,4-dihydropyrimido[4,5-d]pyrimidin-2(1H)-one] |
| 5.6 nM | 46 nM | CN1Cc2cc(Nc3ncc4c(=N)n(-c5c(Cl)cccc5Cl)c(=O)[nH]c4n3)ccc2C(C)(C)C1 [Example 2, 3-(2,6-dichlorophenyl)-4-imino-7-{[2,4,4-trimethyl-1,2,3,4-tetrahydroisoquinolin-7-yl]amino}-3,4-dihydropyrimido[4,5-d]pyrimidin-2(1H)-one] |
